In patent US20240287138A1, “CYCLIC PEPTIDES FOR INHIBITING TNF RECEPTOR 1 ACTIVITY” (Merck Sharp & Dohme LLC, priority 2023, published 2024):
Read-outs that look alike come from different tables or passages of the source. Numbered stars: 1 amine (or outer) side, 2 acyl side, 3 side chain; on linkers, the order of the positions; unused ones are H or OH. Square brackets hold non-standard residues; d marks the D form. Peptide text beside a SMILES is read from it. * marks the point of attachment. Ala(2-carboxypyrimidin-5-yl) = N[C@@H](Cc1cnc(C(=O)O)nc1)C(=O)O; Trp(βS-Me,7-OMe) = COc1cccc2c([C@H](C)[C@H](N)C(=O)O)c[nH]c12; Phe(4-SO2NH2) = N[C@@H](Cc1ccc(S(N)(=O)=O)cc1)C(=O)O; Trp(7-CN) = N#Cc1cccc2c(C[C@H](N)C(=O)O)c[nH]c12; Trp(7-Cl) = N[C@@H](Cc1c[nH]c2c(Cl)cccc12)C(=O)O; Ala(pyrimidin-5-yl) = N[C@@H](Cc1cncnc1)C(=O)O; Phe(3-CONH2) = NC(=O)c1cccc(C[C@H](N)C(=O)O)c1; Phe(4-CONH2) = NC(=O)c1ccc(C[C@H](N)C(=O)O)cc1; Phe(4-COOH) = N[C@@H](Cc1ccc(C(=O)O)cc1)C(=O)O; X64 = O=C([C@H](Cc1n[nH]c2ncccc12)N[*:1])[*:2]; Trp(7-aza) = N[C@@H](Cc1c[nH]c2ncccc12)C(=O)O; X60 = NC(=O)[C@H](O)[C@H](N[*:1])C(=O)[*:2]; X63 = O=C([C@@H]1CC[C@H](O)CN1[*:1])[*:2]; Pip(5R-OH) = O=C(O)[C@@H]1CC[C@@H](O)CN1; X1 = O=C([C@@H]1CC[C@H](N[*:1])C1)[*:2]; 4Pal = N[C@@H](Cc1ccncc1)C(=O)O; dHyp = O=C(O)[C@H]1C[C@H](O)CN1; αMeS = C[C@](N)(CO)C(=O)O; Carboxymethyl = O=C(O)C*; Nle = CCCC[C@H](N)C(=O)O; Sar = CNCC(=O)O

Legend:
[1] = target: T1, human soluble TNFR1 (sTNFR1) (Homo sapiens, UniProt P19438); assay: Human sTNFR1-peptide displacement assay (LanthaScreen Eu TR-FRET binding assay)
T1 construct: made in house; host or cells: Sf21 (baculovirus)
T1 sequence (P19438 with tags, fused parts or gaps): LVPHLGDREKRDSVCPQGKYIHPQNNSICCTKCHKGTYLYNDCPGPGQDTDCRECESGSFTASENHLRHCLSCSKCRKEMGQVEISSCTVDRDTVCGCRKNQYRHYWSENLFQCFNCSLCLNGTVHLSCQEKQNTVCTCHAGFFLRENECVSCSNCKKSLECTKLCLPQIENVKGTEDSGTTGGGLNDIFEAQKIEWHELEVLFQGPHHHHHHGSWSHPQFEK
How it was run: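 Readout is the 665/615 nm TR-FRET ratio (Eu anti-His donor, streptavidin-Alexa647 acceptor), normalized to DMSO and saturating displacer, fit by Morrison-based five-parameter logistic for Kd^app. His-tagged sTNFR1 (1-211) prebound to 100 nM biotinylated peptide SEQ ID NO.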

[2] = target: T2, TNFα-induced NF-κB signal transduction pathway (TNFR1 signaling) in THP-1 cells (Homo sapiens, UniProt P19438); assay: THP-1 Lucia NF-κB reporter cell assay, inhibition of TNFα-induced NF-κB signaling; format: cell-based; conditions: THP-1 NF-κB Lucia reporter cells, 10 ng/mL TNFα, 16-18 h, secreted luciferase, read-out: THP-1 IC50
T2 sequence (P19438 30-455): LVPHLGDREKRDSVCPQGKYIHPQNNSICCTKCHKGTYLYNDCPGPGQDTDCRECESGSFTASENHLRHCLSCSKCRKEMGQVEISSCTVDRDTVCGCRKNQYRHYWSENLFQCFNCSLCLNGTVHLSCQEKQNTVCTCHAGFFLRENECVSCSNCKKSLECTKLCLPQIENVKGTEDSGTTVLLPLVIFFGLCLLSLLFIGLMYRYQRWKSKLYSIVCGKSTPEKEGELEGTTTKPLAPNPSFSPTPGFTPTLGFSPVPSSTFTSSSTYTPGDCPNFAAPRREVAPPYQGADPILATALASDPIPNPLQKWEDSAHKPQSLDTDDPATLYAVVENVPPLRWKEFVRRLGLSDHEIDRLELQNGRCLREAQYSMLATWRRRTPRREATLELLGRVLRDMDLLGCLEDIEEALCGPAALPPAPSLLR
How it was run: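 IC50 from a 4-parameter logistic fit of secreted luciferase luminescence (QUANTI-Luc), normalised to min/max controls. Reporter THP-1 cells were exposed to peptides for 1 h at 37 °C before 10 ng/mL TNFα (final) was added overnight (16–18 h).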

SMILES | Kd [1] [nM] | IC50 [2] [nM] | Kd ([1]; displacement of biotinylated peptide SEQ ID NO. 1 from sTNFR1, 20 point titration, 5-parameter fit based on Morrison equation (tight binding), read-out: TR-FRET Kd^app) [nM] | IC50 ([2]; listed as 77) [nM]
CCCC[C@@H]1NC(=O)[C@@H]2CC[C@@H](C2)NC(=O)[C@H]([C@@H](C)c2c[nH]c3c(OC)cccc23)NC(=O)CN(C)C(=O)[C@H](Cc2cccc(C(N)=O)c2)NC(=O)[C@H](Cc2ccc(C(N)=O)cc2)NC(=O)[C@](C)(CO)NC(=O)[C@H](Cc2c[nH]c3c(Cl)cccc23)NC(=O)[C@H](Cc2ccncc2)NC(=O)[C@H](CC(N)=O)NC(=O)[C@H]2C[C@H](O)CN2C(=O)[C@H](Cc2c[nH]c3ccccc23)NC(=O)[C@@H]2CC[C@H](O)CN2C(=O)[C@H](Cc2ccncc2)NC1=O [SEQ ID NO. 67] (cyclo([4Pal][Trp(7-Cl)][αMeS][Phe(4-CONH2)][Phe(3-CONH2)][Sar][Trp(βS-Me,7-OMe)][X1][Nle][4Pal][X63]W[dHyp]N)) | 0.2 | 0.4 | – | –
CCCC[C@@H]1NC(=O)[C@@H]2CC[C@@H](C2)NC(=O)[C@H]([C@@H](C)c2c[nH]c3c(OC)cccc23)NC(=O)CN(C)C(=O)[C@H](Cc2ccc(C(=O)O)cc2)NC(=O)[C@H](Cc2ccc(C(N)=O)cc2)NC(=O)[C@](C)(CO)NC(=O)[C@H](Cc2c[nH]c3c(C#N)cccc23)NC(=O)[C@H](Cc2ccc(C(=O)O)cc2)NC(=O)[C@H](CC(N)=O)NC(=O)[C@H]2C[C@H](OCC(=O)O)CN2C(=O)[C@H](Cc2c[nH]c3ncccc23)NC(=O)[C@@H]2CC[C@@H](O)CN2C(=O)[C@H](Cc2ccncc2)NC1=O [SEQ ID NO. 77] (cyclo([4Pal][Pip(5R-OH)][Trp(7-aza)][dHyp](Carboxymethyl)N[Phe(4-COOH)][Trp(7-CN)][αMeS][Phe(4-CONH2)][Phe(4-COOH)][Sar][Trp(βS-Me,7-OMe)][X1][Nle])) | – | – | 0.06 | 0.6
CCCC[C@@H]1NC(=O)[C@@H]2CC[C@@H](C2)NC(=O)[C@H]([C@@H](C)c2c[nH]c3c(OC)cccc23)NC(=O)CN(C)C(=O)[C@H](Cc2ccc(C(=O)O)cc2)NC(=O)[C@H](Cc2ccc(C(N)=O)cc2)NC(=O)[C@](C)(CO)NC(=O)[C@H](Cc2c[nH]c3c(C#N)cccc23)NC(=O)[C@H](Cc2ccncc2)NC(=O)[C@H]([C@@H](O)C(N)=O)NC(=O)[C@H]2C[C@H](O)CN2C(=O)[C@H](Cc2c[nH]c3ccccc23)NC(=O)[C@@H]2CC[C@@H](O)CN2C(=O)[C@H](Cc2ccncc2)NC1=O [SEQ ID NO. 78] (cyclo([4Pal][Trp(7-CN)][αMeS][Phe(4-CONH2)][Phe(4-COOH)][Sar][Trp(βS-Me,7-OMe)][X1][Nle][4Pal][Pip(5R-OH)]W[dHyp][X60])) | 0.05 | 0.7 | – | –
CCCC[C@@H]1NC(=O)[C@@H]2CC[C@@H](C2)NC(=O)[C@H]([C@@H](C)c2c[nH]c3c(OC)cccc23)NC(=O)CN(C)C(=O)[C@H](Cc2ccc(C(=O)O)cc2)NC(=O)[C@H](Cc2ccc(C(N)=O)cc2)NC(=O)[C@](C)(CO)NC(=O)[C@H](Cc2c[nH]c3c(Cl)cccc23)NC(=O)[C@H](Cc2cnc(C(=O)O)nc2)NC(=O)[C@H](CC(N)=O)NC(=O)[C@H]2C[C@H](O)CN2C(=O)[C@H](Cc2c[nH]c3ccccc23)NC(=O)[C@@H]2CC[C@@H](O)CN2C(=O)[C@H](Cc2ccncc2)NC1=O [SEQ ID NO. 88] (cyclo([4Pal][Pip(5R-OH)]W[dHyp]N[Ala(2-carboxypyrimidin-5-yl)][Trp(7-Cl)][αMeS][Phe(4-CONH2)][Phe(4-COOH)][Sar][Trp(βS-Me,7-OMe)][X1][Nle])) | 0.2 | 1.9 | – | –
CCCC[C@@H]1NC(=O)[C@@H]2CC[C@@H](C2)NC(=O)[C@H]([C@@H](C)c2c[nH]c3c(OC)cccc23)NC(=O)CN(C)C(=O)[C@H](Cc2ccc(OCC(=O)O)cc2)NC(=O)[C@H](Cc2ccc(S(N)(=O)=O)cc2)NC(=O)[C@](C)(CO)NC(=O)[C@H](Cc2c[nH]c3c(C#N)cccc23)NC(=O)[C@H](Cc2ccc(OCC(=O)O)cc2)NC(=O)[C@H](CC(N)=O)NC(=O)[C@H]2C[C@H](OCC(=O)O)CN2C(=O)[C@H](Cc2n[nH]c3ncccc23)NC(=O)[C@@H]2CC[C@@H](O)CN2C(=O)[C@H](Cc2cncnc2)NC1=O [SEQ ID NO. 89] (cyclo([X1][Nle][Ala(pyrimidin-5-yl)][Pip(5R-OH)][X64][dHyp](Carboxymethyl)NY(Carboxymethyl)[Trp(7-CN)][αMeS][Phe(4-SO2NH2)]Y(Carboxymethyl)[Sar][Trp(βS-Me,7-OMe)])) | 0.18 | 1.2 | – | –
